According to patent US10131744B2, “Antimicrobial polyamide compositions and mastitis treatment” (priority 2013, dated 2018):
Like-named read-outs stand apart in the source and are kept apart here.

Key:
Histophilus somni = experiment: MIC in broth against Histophilus somni; type: cell-based
Method: (§1) The antimicrobial efficacy of twenty-five antimicrobial polymers (and Erythromycin) was evaluated using an MIC assay. For each study, a doubling dilution concentration of each antimicrobial polymer was prepared at 2× the final concentration range (0.12 to 16 μg/mL), and 100 μL of the API-null formulation was dispensed into the negative control wells. Overall, the antimicrobial polymer-containing compositions performed comparably well, or better, against the pathogens, as compared to Erythromycin (ERY).

[1] = tested on: Actinobacillus pleuropneumoniae; experiment: MIC in broth against Actinobacillus pleuropneumoniae; type: cell-based
Method: as §1

[2] = tested on: Staphylococcus aureus (including MRSA); experiment: MIC in broth against Staphylococcus aureus (including MRSA); type: cell-based; set-up: MIC against Staphylococcus aureus including MRSA: unit: μg/mL
Method: as §1

[3] = tested on: Streptococcus dysgalactiae; experiment: MIC in broth against Streptococcus dysgalactiae; type: cell-based
Method: as §1

Serratia marcescens = experiment: MIC in broth against Serratia marcescens; type: cell-based; set-up: unit not given beside the values
Method: as §1

Moraxella bovis = experiment: MIC in broth against Moraxella bovis; type: cell-based
Method: as §1

[4] = tested on: Bordetella bronchiseptica; experiment: MIC in broth against Bordetella bronchiseptica; type: cell-based
Method: as §1

Pseudomonas aeruginosa = experiment: MIC in broth against Pseudomonas aeruginosa; type: cell-based; set-up: unit not given beside the values
Method: as §1

Klebsiella species = experiment: MIC in broth against Klebsiella species; type: cell-based
Method: as §1

Streptococcus canis = experiment: MIC in broth against Streptococcus canis; type: cell-based; set-up: unit not given beside the values
Method: as §1

[5] = tested on: Staphylococcus aureus (including MRSA); details: S. aureus (Sta-3) ATCC 29213; cited from earlier work
Streptococcus uberis = experiment: MIC in broth against Streptococcus uberis; type: cell-based
Method: as §1

CC[C@H]1OC(=O)[C@H](C)[C@@H](O[C@H]2C[C@@](C)(OC)[C@@H](O)[C@H](C)O2)[C@H](C)[C@@H](O[C@@H]2O[C@H](C)C[C@H](N(C)C)[C@H]2O)[C@](C)(O)C[C@@H](C)C(=O)[C@H](C)[C@@H](O)[C@]1(C)O [Ery, Erythromycin]
0.5 µg/mL: MIC (Histophilus somni; isolates # 241, 247 (BRD), read-out: MIC against Histophilus somni) | MIC ([2]; Staphylococcus aureus, ATCC 29213 / MRSA, S. aureus (Sta-3) ATCC 29213) | MIC (Moraxella bovis; isolate # 89) | MIC (Moraxella bovis; isolate # 90) | MIC (Moraxella bovis; isolate # 92) | MIC (Moraxella bovis; isolate # 94) | MIC (Moraxella bovis; isolate # 95) | MIC (Moraxella bovis; isolate # 96) | MIC (Moraxella bovis; isolate # 97) | MIC (Streptococcus uberis; isolate # 219)
0.25 to 1 µg/mL: Known range (MIC) [5]
>8 µg/mL: MIC against Klebsiella species (Klebsiella species; isolate # 29) | MIC against Klebsiella species (Klebsiella species; isolate # 30) | MIC against Klebsiella species (Klebsiella species; isolate # 31) | MIC against Klebsiella species (Klebsiella species; isolate # 32) | MIC against Klebsiella species (Klebsiella species; isolate # 33) | MIC against Klebsiella species (Klebsiella species; isolate # 34) | MIC against Klebsiella species (Klebsiella species; isolate # 35) | MIC against Klebsiella species (Klebsiella species; isolate # 36) | MIC against Klebsiella species (Klebsiella species; isolate # 37) | MIC against Klebsiella species (Klebsiella species; isolate # 38) | MIC against Klebsiella species (Klebsiella species; isolate # 39) | MIC against Klebsiella species (Klebsiella species; isolate # 40) | MIC against Klebsiella species (Klebsiella species; isolate # 41) | MIC against Klebsiella species (Klebsiella species; isolate # 42) | MIC against Klebsiella species (Klebsiella species; isolate # 43) | MIC against Klebsiella species (Klebsiella species; isolate # 44) | MIC against Klebsiella species (Klebsiella species; isolate # 45) | MIC against Klebsiella species (Klebsiella species; isolate # 46) | MIC against Klebsiella species (Klebsiella species; isolate # 47)
0.25: MIC against Staphylococcus aureus including MRSA ([2]; strain # 98) | MIC against Staphylococcus aureus including MRSA ([2]; strain # 99) | MIC against Staphylococcus aureus including MRSA ([2]; strain # 100) | MIC against Staphylococcus aureus including MRSA ([2]; strain # 101) | MIC against Staphylococcus aureus including MRSA ([2]; strain # 102) | MIC against Staphylococcus aureus including MRSA ([2]; strain # 103) | MIC against Staphylococcus aureus including MRSA ([2]; strain # 104) | MIC against Staphylococcus aureus including MRSA ([2]; strain # 105) | MIC against Staphylococcus aureus including MRSA ([2]; strain # 106) | MIC against Staphylococcus aureus including MRSA ([2]; strain # 107)
1 µg/mL: MIC (Histophilus somni; H. somni (H-15) ATTC 700025, read-out: MIC) | MIC (Histophilus somni; isolates # 242, 244, 245 (BRD), read-out: MIC against Histophilus somni) | MIC (Moraxella bovis; isolate # 91) | MIC (Streptococcus uberis; isolate # 221)
0.06: MIC against Streptococcus canis (Streptococcus canis; isolate # 198) | MIC against Streptococcus canis (Streptococcus canis; isolate # 199) | MIC against Streptococcus canis (Streptococcus canis; isolate # 201) | MIC against Streptococcus canis (Streptococcus canis; isolate # 202) | MIC against Streptococcus canis (Streptococcus canis; isolate # 203) | MIC against Streptococcus canis (Streptococcus canis; isolate # 204) | MIC against Streptococcus canis (Streptococcus canis; isolate # 205) | MIC against Streptococcus canis (Streptococcus canis; isolate # 206) | MIC against Streptococcus canis (Streptococcus canis; isolate # 207)
> 8 µg/mL: MIC (Histophilus somni; isolates # 238-240, 243, 246 (BRD), read-out: MIC against Histophilus somni) | MIC ([4]; isolate # 85 (canine/feline)) | MIC ([4]; isolate # 86 (canine/feline)) | MIC (Klebsiella species; Klebsiella, isolate # 28)
1: MIC against Staphylococcus aureus including MRSA ([2]; strain # 109)
4 µg/mL: MIC ([1]; isolates # 228-231, 235 (porcine lung, SRD), read-out: MIC against Actinobacillus pleuropneumoniae)
2 µg/mL: MIC ([1]; isolate # 237 (porcine lung, SRD), read-out: MIC against Actinobacillus pleuropneumoniae) | MIC ([4]; isolate # 80 (canine/feline)) | MIC ([4]; isolate # 82 (canine/feline)) | MIC (Streptococcus uberis; isolate # 225) | MIC (Streptococcus uberis; isolate # 227)
0.12 µg/mL: MIC ([3]; isolate # 210) | MIC ([3]; isolate # 212) | MIC ([3]; isolate # 213) | MIC ([3]; isolate # 215) | MIC ([3]; isolate # 217)
8 µg/mL: MIC ([1]; A. pleuro. (AC-1) ATTC 27090, read-out: MIC) | MIC ([1]; isolates # 232-236 (porcine lung, SRD), read-out: MIC against Actinobacillus pleuropneumoniae) | MIC ([4]; isolate # 78 (canine/feline)) | MIC ([4]; isolate # 79 (canine/feline)) | MIC ([4]; isolate # 81 (canine/feline)) | MIC ([4]; isolate # 83 (canine/feline)) | MIC ([4]; isolate # 84 (canine/feline)) | MIC ([4]; isolate # 87 (canine/feline))
0.12: MIC against Streptococcus canis (Streptococcus canis; isolate # 200)
0.3 µg/mL: MIC (Moraxella bovis; isolate # 88) | MIC (Moraxella bovis; isolate # 93)
>8: MIC against Staphylococcus aureus including MRSA ([2]; strain # 108) | MIC against Staphylococcus aureus including MRSA ([2]; strain # 110) | MIC against Staphylococcus aureus including MRSA ([2]; strain # 111) | MIC against Staphylococcus aureus including MRSA ([2]; strain # 113) | MIC against Staphylococcus aureus including MRSA ([2]; strain # 114) | MIC against Staphylococcus aureus including MRSA ([2]; strain # 115) | MIC against Staphylococcus aureus including MRSA ([2]; strain # 116) | MIC against Staphylococcus aureus including MRSA ([2]; strain # 117) | MIC against Staphylococcus aureus including MRSA ([2]; strain # 118) | MIC against Staphylococcus aureus including MRSA ([2]; strain # 119) | MIC against Staphylococcus aureus including MRSA ([2]; strain # 120) | MIC against Staphylococcus aureus including MRSA ([2]; strain # 121) | MIC against Staphylococcus aureus including MRSA ([2]; strain # 122) | MIC against Staphylococcus aureus including MRSA ([2]; strain # 123) | MIC against Staphylococcus aureus including MRSA ([2]; strain # 124) | MIC against Staphylococcus aureus including MRSA ([2]; strain # 125) | MIC against Staphylococcus aureus including MRSA ([2]; strain # 126) | MIC against Staphylococcus aureus including MRSA ([2]; strain # 127) | MIC against Serratia marcescens (Serratia marcescens; isolate # 68) | MIC against Serratia marcescens (Serratia marcescens; isolate # 69) | MIC against Serratia marcescens (Serratia marcescens; isolate # 70) | MIC against Serratia marcescens (Serratia marcescens; isolate # 71) | MIC against Serratia marcescens (Serratia marcescens; isolate # 72) | MIC against Serratia marcescens (Serratia marcescens; isolate # 73) | MIC against Serratia marcescens (Serratia marcescens; isolate # 74) | MIC against Serratia marcescens (Serratia marcescens; isolate # 75) | MIC against Serratia marcescens (Serratia marcescens; isolate # 76) | MIC against Serratia marcescens (Serratia marcescens; isolate # 77) | MIC against Pseudomonas aeruginosa (Pseudomonas aeruginosa; strain # 58) | MIC against Pseudomonas aeruginosa (Pseudomonas aeruginosa; strain # 59) | MIC against Pseudomonas aeruginosa (Pseudomonas aeruginosa; strain # 60) | MIC against Pseudomonas aeruginosa (Pseudomonas aeruginosa; strain # 61) | MIC against Pseudomonas aeruginosa (Pseudomonas aeruginosa; strain # 62) | MIC against Pseudomonas aeruginosa (Pseudomonas aeruginosa; strain # 63) | MIC against Pseudomonas aeruginosa (Pseudomonas aeruginosa; strain # 64) | MIC against Pseudomonas aeruginosa (Pseudomonas aeruginosa; strain # 65) | MIC against Pseudomonas aeruginosa (Pseudomonas aeruginosa; strain # 66) | MIC against Pseudomonas aeruginosa (Pseudomonas aeruginosa; strain # 67)
0.5: MIC against Staphylococcus aureus including MRSA ([2]; strain # 112)
0.06 µg/mL: MIC ([3]; isolate # 208) | MIC ([3]; isolate # 209) | MIC ([3]; isolate # 211) | MIC ([3]; isolate # 214) | MIC ([3]; isolate # 216) | MIC (Streptococcus uberis; isolate # 218) | MIC (Streptococcus uberis; isolate # 220) | MIC (Streptococcus uberis; isolate # 222) | MIC (Streptococcus uberis; isolate # 223) | MIC (Streptococcus uberis; isolate # 224) | MIC (Streptococcus uberis; isolate # 226)
